These results are taken from patent US10479795B2 (Incyte Corporation, priority 2016, dated 2019).

Structures can show the parent of a compound that is named as a salt. Where two headings read alike, the source gives them in different places.

The subject of assay [1] is Phosphorylated Ribosomal Protein S6 (RPS6). Briefly: THP-1 RPS6 ELISA Assay. Type of assay: cell-based, Human. The conditions noted are these: THP-1 cells, read-out: PI3Kγ_THP1_RPS6_ELISA IC50. In a few lines:
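Serum-starved THP-1 cells were preincubated with a concentration range of compound for 2 h at 37 °C, then stimulated with 10 nM MCP-1 for 15 min. Phospho-RPS6 in lysates was quantified by ELISA at 450 nm. IC50 came from percent inhibition versus log inhibitor concentration.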

In assay [2] the target is PI3Kδ (p110δ/p85α) Recombinant Human Protein (Homo sapiens (Human), UniProt O00329). Briefly: PI3Kδ Scintillation Proximity Assay. Type of assay: biochemical. In a few lines: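 Recombinant human p110δ/p85α (3.4 nM) with 20 μM PIP2 and 2 μM ATP plus [γ-33P]ATP, in 20 mM MOPS pH 6.7, 10 mM MgCl2, 5 mM DTT, 0.03% CHAPS, 2% DMSO; 120 min at room temperature. Product captured on WGA SPA beads, scintillation counted; IC50 from percent-of-control curves.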

For assay [3], the target named is PI3Kγ (p110γ) Recombinant Human Protein (Homo sapiens (Human), UniProt P48736). Briefly: PI3K-γ Scintillation Proximity Assay. The class given is biochemical. The conditions noted are these: read-out: PI3Kγ IC50. The procedure, abridged: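 Recombinant human p110γ assayed at room temperature in 20 mM MOPS pH 6.7, 10 mM MgCl2, 5 mM DTT, 0.03% CHAPS, 2% DMSO, with 20 μM PIP2 and 2 μM ATP plus [γ-33P]ATP. Product captured on WGA SPA beads overnight and counted; IC50 fitted from % of solvent-control activity versus log inhibitor concentration.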
Sequence of PI3Kγ (p110γ) Recombinant Human Protein (P48736 whole entry): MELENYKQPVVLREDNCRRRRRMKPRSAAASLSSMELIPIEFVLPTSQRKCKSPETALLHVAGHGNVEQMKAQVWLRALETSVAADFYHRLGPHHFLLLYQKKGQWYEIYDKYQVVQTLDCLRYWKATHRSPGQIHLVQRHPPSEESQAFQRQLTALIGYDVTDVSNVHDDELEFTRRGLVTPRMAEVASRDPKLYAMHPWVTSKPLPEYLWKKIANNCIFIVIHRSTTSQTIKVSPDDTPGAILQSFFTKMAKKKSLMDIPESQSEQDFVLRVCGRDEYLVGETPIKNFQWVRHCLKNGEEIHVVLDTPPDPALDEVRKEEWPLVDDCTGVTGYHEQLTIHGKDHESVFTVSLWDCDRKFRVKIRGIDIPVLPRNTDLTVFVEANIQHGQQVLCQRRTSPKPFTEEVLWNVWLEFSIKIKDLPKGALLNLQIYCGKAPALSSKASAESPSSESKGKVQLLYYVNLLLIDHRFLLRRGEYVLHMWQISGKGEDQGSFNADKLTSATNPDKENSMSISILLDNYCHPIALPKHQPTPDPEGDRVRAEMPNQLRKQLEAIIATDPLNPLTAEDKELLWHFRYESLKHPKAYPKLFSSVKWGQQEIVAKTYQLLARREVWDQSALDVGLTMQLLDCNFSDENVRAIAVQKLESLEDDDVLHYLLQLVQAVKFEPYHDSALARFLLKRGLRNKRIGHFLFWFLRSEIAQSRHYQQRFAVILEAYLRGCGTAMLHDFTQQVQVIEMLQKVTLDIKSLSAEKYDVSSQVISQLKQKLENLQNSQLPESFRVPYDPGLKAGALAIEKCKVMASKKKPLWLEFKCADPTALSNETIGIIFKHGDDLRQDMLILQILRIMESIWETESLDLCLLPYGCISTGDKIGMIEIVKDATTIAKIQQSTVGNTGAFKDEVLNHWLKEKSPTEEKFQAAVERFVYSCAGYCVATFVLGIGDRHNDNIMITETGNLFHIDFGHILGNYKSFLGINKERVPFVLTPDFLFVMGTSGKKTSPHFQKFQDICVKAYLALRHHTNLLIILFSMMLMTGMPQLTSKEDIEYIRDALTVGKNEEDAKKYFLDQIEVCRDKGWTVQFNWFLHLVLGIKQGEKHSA

Sequence of PI3Kδ (p110δ/p85α) Recombinant Human Protein (O00329 whole entry): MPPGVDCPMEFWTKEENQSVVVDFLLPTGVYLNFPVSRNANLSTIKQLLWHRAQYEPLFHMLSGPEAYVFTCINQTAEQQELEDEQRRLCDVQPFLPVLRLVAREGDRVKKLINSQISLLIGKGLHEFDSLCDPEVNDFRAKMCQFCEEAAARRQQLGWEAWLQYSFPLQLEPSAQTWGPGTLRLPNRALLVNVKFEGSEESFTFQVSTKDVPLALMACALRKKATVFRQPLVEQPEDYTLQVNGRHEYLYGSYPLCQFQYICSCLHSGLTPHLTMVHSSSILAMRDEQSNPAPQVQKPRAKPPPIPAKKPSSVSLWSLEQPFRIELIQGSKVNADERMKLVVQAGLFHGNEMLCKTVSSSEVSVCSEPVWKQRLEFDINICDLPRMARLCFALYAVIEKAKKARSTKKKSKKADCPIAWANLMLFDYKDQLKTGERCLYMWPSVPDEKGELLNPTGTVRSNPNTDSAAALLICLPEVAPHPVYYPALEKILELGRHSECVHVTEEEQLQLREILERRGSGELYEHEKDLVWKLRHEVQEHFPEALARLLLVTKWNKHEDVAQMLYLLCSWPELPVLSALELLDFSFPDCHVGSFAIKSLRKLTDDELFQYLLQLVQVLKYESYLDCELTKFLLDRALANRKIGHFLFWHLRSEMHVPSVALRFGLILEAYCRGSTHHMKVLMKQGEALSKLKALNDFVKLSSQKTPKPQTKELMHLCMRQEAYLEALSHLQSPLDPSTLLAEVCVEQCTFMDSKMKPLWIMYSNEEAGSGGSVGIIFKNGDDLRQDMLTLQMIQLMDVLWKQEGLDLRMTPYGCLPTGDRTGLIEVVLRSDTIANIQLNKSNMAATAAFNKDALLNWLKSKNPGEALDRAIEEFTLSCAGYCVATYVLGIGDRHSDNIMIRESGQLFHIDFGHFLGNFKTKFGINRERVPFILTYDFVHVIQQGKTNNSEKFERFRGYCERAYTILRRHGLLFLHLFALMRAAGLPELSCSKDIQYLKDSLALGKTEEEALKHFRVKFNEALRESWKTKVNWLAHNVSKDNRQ
Sequence of PI3Kδ (p110δ/p85α) Recombinant Human Protein (P27986 whole entry partner): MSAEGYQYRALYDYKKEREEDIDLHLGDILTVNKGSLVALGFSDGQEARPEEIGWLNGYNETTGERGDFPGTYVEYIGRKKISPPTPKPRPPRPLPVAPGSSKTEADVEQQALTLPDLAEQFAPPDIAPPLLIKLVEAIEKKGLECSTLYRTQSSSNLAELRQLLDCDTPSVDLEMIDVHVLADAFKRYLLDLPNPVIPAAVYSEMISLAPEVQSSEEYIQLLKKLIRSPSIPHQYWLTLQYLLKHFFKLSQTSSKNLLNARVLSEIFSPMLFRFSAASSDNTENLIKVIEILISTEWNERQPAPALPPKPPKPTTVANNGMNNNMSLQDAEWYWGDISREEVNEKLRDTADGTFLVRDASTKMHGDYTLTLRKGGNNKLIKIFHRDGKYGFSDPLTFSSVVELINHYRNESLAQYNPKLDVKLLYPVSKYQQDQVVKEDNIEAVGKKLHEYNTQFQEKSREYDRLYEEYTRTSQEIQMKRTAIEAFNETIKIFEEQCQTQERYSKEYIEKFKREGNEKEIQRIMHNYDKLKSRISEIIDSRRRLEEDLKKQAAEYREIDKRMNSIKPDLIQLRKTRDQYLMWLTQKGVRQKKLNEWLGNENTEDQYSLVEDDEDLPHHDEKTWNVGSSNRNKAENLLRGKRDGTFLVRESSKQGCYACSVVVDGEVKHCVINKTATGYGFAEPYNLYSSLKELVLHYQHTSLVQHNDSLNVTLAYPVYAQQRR

As to `C[C@]1(O)CC[C@H](NS(=O)(=O)c2cc(-c3cnc4c(N)nc(-c5ccc(CO)cc5F)cn34)ccc2F)CC1` [Example 423, 5-(8-amino-6-(2-fluoro-4-(hydroxymethyl)phenyl)imidazo[1,2-a]pyrazin-3-yl)-2-fluoro-N-((1r,4r)-4-hydroxy-4-methylcyclohexyl)benzenesulfonamide], the IC50 in assay [1], in assay [2] and in assay [3] was less than 100 nM in each case.
`Cc1ccc(S(=O)(=O)NC23COC(C)(C2)C3)cc1-c1cnc2c(N)ncnn12` [Example 424, 3-(4-Aminoimidazo[1,2-f][1,2,4]triazin-7-yl)-4-methyl-N-(1-methyl-2-oxabicyclo[2.1.1]hexan-4-yl)benzenesulfonamide trifluoroacetate salt]: the figures for the 50% inhibitory concentration (IC50) in assay [1] (Homo sapiens), in assay [2] and in assay [3] were 100 to 500 nM, 100 to 500 nM and less than 100 nM, respectively.
On to `Cc1ccc(S(=O)(=O)NC23COC(C)(C2)C3)cc1-c1cnc2c(N)nc(C(F)(F)F)cn12` [Example 425, 3-(8-Amino-6-(trifluoromethyl)imidazo[1,2-a]pyrazin-3-yl)-4-methyl-N-(1-methyl-2-oxabicyclo[2.1.1]hexan-4-yl)benzenesulfonamide trifluoroacetate salt], for which the IC50 in assay [1] (Homo sapiens) is less than 100 nM; in assay [2], 100 to 500 nM; in assay [3] it was less than 100 nM.
Consider `[2H]C([2H])([2H])c1ccc(S(=O)(=O)NC23COC(C)(C2)C3)cc1-c1cnc2c(N)nc(C)nn12` [Example 426, 3-(4-Amino-2-methylimidazo[1,2-f][1,2,4]triazin-7-yl)-4-trideuteromethyl-N-(1-methyl-2-oxabicyclo[2.1.1]hexan-4-yl)benzenesulfonamide trifluoroacetate salt], for which the half-inhibitory concentration (IC50) in assay [1] (Homo sapiens) was 100 to 500 nM; in assay [2] it was 100 to 500 nM; in assay [3] it was less than 100 nM.
As to `Cc1ccc(S(=O)(=O)NC23COC(CO)(C2)C3)cc1-c1cnc2c(N)nc(C(F)(F)F)nn12` [Example 427, 3-(4-Amino-2-(trifluoromethyl)imidazo[1,2-f][1,2,4]triazin-7-yl)-N-(1-(hydroxymethyl)-2-oxabicyclo[2.1.1]hexan-4-yl)-4-methylbenzenesulfonamide trifluoroacetate salt], the IC50 in assay [1] (Homo sapiens) was 100 to 500 nM; in assay [2] it was 100 to 500 nM; in assay [3] it was less than 100 nM.
For the molecule `Cc1ccc(S(=O)(=O)NC23COC(CO)(C2)C3)cc1-c1cnc2c(N)nc(C(F)(F)F)cn12` [Example 428, 3-(8-amino-6-(trifluoromethyl)imidazo[1,2-a]pyrazin-3-yl)-N-(1-(hydroxymethyl)-2-oxabicyclo[2.1.1]hexan-4-yl)-4-methylbenzenesulfonamide trifluoroacetate salt], the IC50 was 100 to 500 nM in assay [1] (Homo sapiens), 100 to 500 nM in assay [2] and less than 100 nM in assay [3].
Take `Cc1ccc(S(=O)(=O)NC23COC(C#N)(C2)C3)cc1-c1cnc2c(N)nc(C(F)(F)F)cn12` [Example 429, 3-(8-Amino-6-(trifluoromethyl)imidazo[1,2-a]pyrazin-3-yl)-N-(1-cyano-2-oxabicyclo[2.1.1]hexan-4-yl)-4-methylbenzenesulfonamide trifluoroacetate salt]: the IC50 in assay [1] (Homo sapiens) was 100 to 500 nM; in assay [2] it was 100 to 500 nM; in assay [3], less than 100 nM.
With `Cc1ccc(S(=O)(=O)NC23CCC(CC#N)(CC2)C3)cc1-c1cnc2c(N)ncnn12` [Example 430, 3-(4-Aminoimidazo[1,2-f][1,2,4]triazin-7-yl)-N-((1s,4s)-4-(cyanomethyl)bicyclo[2.2.1]heptan-1-yl)-4-methylbenzenesulfonamide trifluoroacetate salt], the IC50 in assay [1] (Homo sapiens) is 100 to 500 nM; in assay [2], 100 to 500 nM; in assay [3], less than 100 nM.
`Cc1ccc(S(=O)(=O)NC23CCC(C(C)(C)O)(CC2)C3)cc1-c1cnc2c(N)ncnn12` [Example 431, 3-(4-Aminoimidazo[1,2-f][1,2,4]triazin-7-yl)-N-(4-(2-hydroxypropan-2-yl)bicyclo[2.2.1]heptan-1-yl)-4-methylbenzenesulfonamide trifluoroacetate salt]: the half-maximal inhibitory concentration (IC50) in assay [1] (Homo sapiens) is 100 to 500 nM; in assay [2], 100 to 500 nM; in assay [3], less than 100 nM.
As for `Cc1ccc(S(=O)(=O)NC23CCC(CO)(CC2)OC3)cc1-c1cnc2c(N)ncnn12` [Example 433, 3-(4-Aminoimidazo[1,2-f][1,2,4]triazin-7-yl)-N-(1-(hydroxymethyl)-2-oxabicyclo[2.2.2]octan-4-yl)-4-methylbenzenesulfonamide trifluoroacetate salt], the IC50 in assay [1] (Homo sapiens) was 100 to 500 nM; in assay [2] it was 100 to 500 nM; in assay [3] it was less than 100 nM.
Consider `Cc1ccc(S(=O)(=O)NC23CCC(CN4CCOCC4)(CC2)OC3)cc1-c1cnc2c(N)ncnn12` [Example 434, 3-(4-Aminoimidazo[1,2-f][1,2,4]triazin-7-yl)-4-methyl-N-(1-(morpholinomethyl)-2-oxabicyclo[2.2.2]octan-4-yl)benzenesulfonamide trifluoroacetate salt], for which the IC50 was 100 to 500 nM in assay [1] (Homo sapiens), 100 to 500 nM in assay [2] and less than 100 nM in assay [3].
On to `Cc1ccc(S(=O)(=O)NC23CCC(CN4CC(F)(F)C4)(CC2)OC3)cc1-c1cnc2c(N)ncnn12` [Example 435, 3-(4-Aminoimidazo[1,2-f][1,2,4]triazin-7-yl)-N-(1-((3,3-difluoroazetidin-1-yl)methyl)-2-oxabicyclo[2.2.2]octan-4-yl)-4-methylbenzenesulfonamide trifluoroacetate salt], for which the IC50 in assay [1] (Homo sapiens) is 500 to 1000 nM; in assay [2] it was 100 to 500 nM; in assay [3], less than 100 nM.
Turning to `Cc1ccc(S(=O)(=O)NC23CCC(C(F)F)(CC2)OC3)cc1-c1cnc2c(N)ncnn12` [Example 436, 3-(4-aminoimidazo[1,2-f][1,2,4]triazin-7-yl)-N-(1-(difluoromethyl)-2-oxabicyclo[2.2.2]octan-4-yl)-4-methylbenzenesulfonamide trifluoroacetate salt], the concentration for half-maximal inhibition (IC50) in assay [1] (Homo sapiens) is 100 to 500 nM; in assay [2] it was 100 to 500 nM; in assay [3], less than 100 nM.
With `Cc1ccc(S(=O)(=O)NC23CCC(c4nccn4C)(CC2)OC3)cc1-c1cnc2c(N)ncnn12` [Example 439, 3-(4-Aminoimidazo[1,2-f][1,2,4]triazin-7-yl)-4-methyl-N-(1-(1-methyl-1H-imidazol-2-yl)-2-oxabicyclo[2.2.2]octan-4-yl)benzenesulfonamide trifluoroacetate salt], the figures for the IC50 in assay [1] (Homo sapiens), in assay [2] and in assay [3] were 500 to 1000 nM, 500 to 2000 nM and less than 100 nM, respectively.
In the case of `Cc1ccc(S(=O)(=O)NC23CCC(c4cnco4)(CC2)OC3)cc1-c1cnc2c(N)ncnn12` [Example 440, 3-(4-Aminoimidazo[1,2-f][1,2,4]triazin-7-yl)-4-methyl-N-(1-(oxazol-5-yl)-2-oxabicyclo[2.2.2]octan-4-yl)benzenesulfonamide trifluoroacetate salt], the IC50 was 100 to 500 nM in assay [1] (Homo sapiens), 100 to 500 nM in assay [2] and less than 100 nM in assay [3].
Take `Cc1ccc(S(=O)(=O)NC23CCC(C(C)(C)O)(CC2)OC3)cc1-c1cnc2c(N)nc(C(F)(F)F)cn12` [Example 441, 3-(8-Amino-6-(trifluoromethyl)imidazo[1,2-a]pyrazin-3-yl)-N-(1-(2-hydroxypropan-2-yl)-2-oxabicyclo[2.2.2]octan-4-yl)-4-methylbenzenesulfonamide trifluoroacetate salt]: the IC50 was 100 to 500 nM in assay [1] (Homo sapiens), 100 to 500 nM in assay [2] and less than 100 nM in assay [3].
As for `Cc1ccc(S(=O)(=O)NC23CCC(O)(CC2)C3)cc1-c1cnc2c(N)ncnn12` [Example 442, 3-(4-Aminoimidazo[1,2-f][1,2,4]triazin-7-yl)-N-((1s,4s)-4-hydroxybicyclo[2.2.1]heptan-1-yl)-4-methylbenzenesulfonamide trifluoroacetate salt], the IC50 in assay [1] (Homo sapiens) was 100 to 500 nM; in assay [2] it was 500 to 2000 nM; in assay [3], less than 100 nM.
The corresponding values for `Cc1nc(N)c2ncc(-c3cc(S(=O)(=O)NC45CCC(O)(CC4)C5)ccc3C)n2n1` [Example 443, 3-(4-Amino-2-methylimidazo[1,2-f][1,2,4]triazin-7-yl)-N-(4-hydroxybicyclo[2.2.1]heptan-1-yl)-4-methylbenzenesulfonamide trifluoroacetate salt] are 100 to 500 nM, less than 100 nM and less than 100 nM.
`Cc1ccc(S(=O)(=O)NC23CCC(O)(CC2)C3)cc1-c1cnc2c(N)nc(C(F)(F)F)cn12` [Example 444, 3-(8-Amino-6-(trifluoromethyl)imidazo[1,2-a]pyrazin-3-yl)-N-(4-hydroxybicyclo[2.2.1]heptan-1-yl)-4-methylbenzenesulfonamide trifluoroacetate salt]: the half-maximal inhibitory concentration (IC50) in assay [1] (Homo sapiens) is 100 to 500 nM; in assay [2], less than 100 nM; in assay [3], less than 100 nM.
As for `CNC(=O)c1cn2c(-c3cc(S(=O)(=O)NCC4CC(F)(F)C4)ccc3C)cnc2c(N)n1` [Example 445, 8-Amino-3-(5-(N-((3,3-difluorocyclobutyl)methyl)sulfamoyl)-2-methylphenyl)-N-methylimidazo[1,2-a]pyrazine-6-carboxamide trifluoroacetate salt], the IC50 in assay [1] (Homo sapiens) is 100 to 500 nM; in assay [2], 100 to 500 nM; in assay [3] it was less than 100 nM.
